Measured values from patent US20030073837A1, “3-HETEROARYLIDENYL-2-INDOLINONE COMPOUNDS FOR MODULATING PROTEIN KINASE ACTIVITY AND FOR USE IN CANCER CHEMOTHERAPY” (priority 1998, published 2003).
Like-named read-outs stand apart in the source and are kept apart here.

Experiments:
[1] = Phase I dose escalation studies, toxicity; format: in vivo; conditions: patients treated with up to 52 weeks of treatment
[2] = test system: endothelial cells induced by VEGF; assay: In vitro proliferation of endothelial cells induced by VEGF (HUV-EC-C assay); format: cell-based, human
Experimental: The following protocol may also be used to measure a compound's activity against PDGF-R, FGF-R, VEGF, aFGF or Flk-1/KDR, all of which are naturally expressed by HUV-EC cells.
1. Wash and trypsinize HUV-EC-C cells (human umbilical vein endothelial cells, (American Type Culture Collection; catalogue no. 1730 CRL). Wash with Dulbecco's phosphate-buffered saline (D-PBS; obtained from Gibco BRL; catalogue no. 14190-029) 2 times at about 1 ml/10 cm^2 of tissue culture flask. Trypsinize with 0.05% trypsin-EDTA in non-enzymatic cell dissociation solution (Sigma Chemical Company; catalogue no. C-1544). The 0.05% trypsin is made by diluting 0.25% trypsin/1 mM EDTA (Gibco; catalogue no. 25200-049) in the cell dissociation solution. Trypsinize with about 1 ml/25-30 cm^2 of tissue culture flask for about 5 minutes at 37° C. After cells have detached from the flask, add an equal volume of assay medium and transfer to a 50 ml sterile centrifuge tube (Fisher Scientific; catalogue no. 05-539-6).
2. Wash the cells with about 35 ml assay medium in the 50 ml sterile centrifuge tube by adding the assay medium, centrifuge for 10 minutes at approximately 200×g, aspirate the supernatant, and resuspend with 35 ml D-PBS. Repeat the wash two more times with D-PBS, resuspend the cells in about 1 ml assay medium/15 cm^2 of tissue culture flask. […]

[3] = test system: ATP binding site of the receptor tyrosine kinase; assay: Washout experiments in vitro
[4] = test system: tumor cells implanted under the serosa of the colon; assay: Tumor cells surgically implanted under the serosa of the colon; format: in vivo, mice
Experimental: 8 week old nude mice (female) (Simonsen Inc.) are used as experimental animals. Implantation of tumor cells can be performed in a laminar flow hood. For anesthesia, Xylazine/Ketamine Cocktail (100 mg/kg ketamine and 5 mg/kg Xylazine) are administered intraperitoneally. A midline incision is done to expose the abdominal cavity (approximately 1.5 cm in length) to inject 10^7 tumor cells in a volume of 100 μl medium. The cells are injected either into the duodenal lobe of the pancreas or under the serosa of the colon. The peritoneum and muscles are closed with a 6-0 silk continuous suture and the skin is closed by using wound clips. Animals are observed daily.
After 2-6 weeks, depending on gross observations of the animals, the mice are sacrificed, and the local tumor metastases to various organs (lung, liver, brain, stomach, spleen, heart, muscle) are excised and analyzed (measurement of tumor size, grade of invasion, immunochemistry, in situ hybridization determination, etc.).

[5] = Phase 1 study pharmacokinetics in patients with advanced malignancies; conditions: for half-life: plasma, intravenous
[6] = test system: a variety of tumor cell lines subcutaneously implanted; assay: Subcutaneous tumor implants in immunocompromised mice; format: in vivo
From the text: (§1) The ability of human tumors to grow as xenografts in athymic mice (e.g., Balb/c, nu/nu) provides a useful in vivo model for studying the biological response to therapies for human tumors. Since the first successful xenotransplantation of human tumors into athymic mice, (Rygaard and Povlsen, 1969, Acta Pathol. Microbial. Scand. 77:758-760), many different human tumor cell lines (e.g., mammary, lung, genitourinary, gastrointestinal, head and neck, glioblastoma, bone, and malignant melanomas) have been transplanted and successfully grown in nude mice. The following assays may be used to determine the level of activity, specificity and effect of the different compounds of the present invention. […]
(§2) Cell lines are grown in appropriate medium (for example, MEM, DMEM, Ham's F10, or Ham's F12 plus 5%-10% fetal bovine serum (FBS) and 2 mM glutamine (GLN)). […] All cell lines are routinely subcultured twice a week and are negative for mycoplasma as determined by the Mycotect method (Gibco).
(§3) Cells are harvested at or near confluency with 0.05% Trypsin-EDTA and pelleted at 450×g for 10 min. […] Tumor growth is measured over 3 to 6 weeks using venier calipers. Tumor volumes are calculated as a product of length×width×height unless otherwise indicated. P values are calculated using the Students t-test. […]

human melanoma cells = assay: Dose response study, human melanoma cells subcutaneous in athymic mice; format: in vivo; conditions: daily administration, doses as low as 1 mg/kg/day
From the text: as §1, §2, §3

[7] = In vivo intravenous pharmacokinetics, dogs
[8] = In vivo intravenous pharmacokinetics, mice
[9] = test system: β-450 liver enzymes (CYP1A2 and CYP3A4); assay: In vitro metabolism studies; format: in vitro ADME
[10] = Subchronic toxicokinetic study (28 day toxicity study), dogs; format: in vivo
[11] = Whole body autoradiography and excretion after intravenous injection; format: in vivo; conditions: in 24 hours, 14C-labeled
[12] = In vivo intravenous pharmacokinetics, rats
FLK-1 receptor = assay: Cellular-based assay of receptor phosphorylation following VEGF (FLK-1 ELISA); format: cell-based
[13] = Subchronic toxicokinetic study (28 day toxicity study), rats; format: in vivo
tumor growth = assay: Less frequent intraperitoneal dosing studies in athymic mice; format: in vivo; conditions: for tumor growth inhibition: intraperitoneal
From the text: as §1, with “invention. Three general types of assays are useful for evaluating compounds: cellular/catalytic, cellular/biological and in vivo. The object of the cellular/catalytic assays is to determine the effect of a compound on the ability of a TK to phosphorylate tyrosines on a known substrate in a cell. The object of the cellular/biological assays is to determine the effect of a compound on the biological response stimulated by a TK in a cell. The object of the in vivo assays is to determine the effect of a compound in an animal model of a particular disorder such as cancer.” for “invention.”
as §2, §3

[14] = test system: a variety of tumor cell lines; assay: Direct inhibitory effect on tumor cell lines in vitro; format: cell-based; conditions: concentrations up to 50 μM
[15] = test system: advanced metastatic colorectal cancer; conditions: cited from earlier work
[16] = test system: metastatic colorectal cancer; conditions: single agent; cited from earlier work
[17] = cited from earlier work

Cc1cc(C)c(/C=C2\C(=O)Nc3ccccc32)[nH]1 [3-[(2,4-dimethylpyrrol-5-yl)methylidenyl]-2-indolinone]
cumulative toxicity [1]: no cumulative toxicity was observed | IC50 ([2]; Homo sapiens, Endothelial cell, read-out: IC50, inhibition of in vitro proliferation of endothelial cells induced by VEGF): ~70 nM | exposure to drug after which detectable activity is first observed ([2]; time-dependent increase in potency): 5 min | target half-life [3]: 96 h | growth of tumor cells implanted under the serosa of the colon ([4]; daily administration 25 mg/kg/day): significantly inhibit the growth | tumor vascularization ([4]; pale appearance of tumors in treated animals): decreased vascularization | increase of the rate of clearance ([5]; after eight infusions, all patients): 50-300% | total distributive volume ([5]; calculated by a one-compartment model): 53.6 ± 11.3 L | clearance versus dose ([5]; doses 4.4-190 mg/m^2): independent of dose | AUC and CMAX versus dose ([5]; doses tested in humans to date): increase linearly with dose | individual clearance calculated based on BSA ([5]; human, in vivo): 41.8±22.1 L/hour/m2 | half-life ([5]; human, alpha half-life, mean, doses 4.4-190 mg/m^2): 5.8 ± 1.9 min | half-life ([5]; human, beta half-life or elimination phase, mean, doses 4.4-190 mg/m^2): 43.4 ± 21.9 min | half-life ([5]; human, beta half-life or elimination phase, range, doses 4.4-190 mg/m^2): 10 to 111 min | half-life ([5]; human, half-life in humans, doses 4.4-190 mg/m^2, preliminary): ~60 min | suppression of tumor growth with delayed administration ([6]; administration delayed until tumors approximately 50 mm^3, versus start on Day 1): equivalent efficacy | inhibition of tumor growth ([6]; daily intraperitoneal dosing 12.5-25 mg/kg/day for 28 days): 30-80% | inhibition of human melanoma cells (human melanoma cells): dose-dependent inhibition | elimination of the parent compound from the circulation [7]: rapid elimination | elimination of the parent compound from the circulation [8]: rapid elimination | metabolizing enzymes [9]: metabolized via β-450 liver enzymes, most probably via CYP1A2 and CYP3A4 | accumulation in plasma upon repeated administration [10]: did not accumulate in plasma | excreted in feces [11]: 72% | excreted in urine [11]: 16% | total dose recovered [11]: 92 % of the total administered dose | elimination of the parent compound from the circulation ([12]; intravenous): rapid elimination | elimination half-life versus dose ([12]; intravenous 29.5-97.9 mg/m^2): linearly increases as the dose increased | increase of AUC ([12]; intravenous 29.5-97.9 mg/m^2, with a 3-fold increase in dose): 10 fold | receptor phosphorylation that follows the interaction of VEGF with its receptor (FLK-1 receptor): inhibit the receptor phosphorylation | accumulation in plasma upon repeated administration [13]: did not accumulate in plasma | tumor growth inhibition and toxicity with interval dosing (tumor growth; dosing at 3 to 4 day intervals): sufficient to inhibit tumor growth without toxicity | tumor growth inhibition (tumor growth; daily dosing): 68% | tumor growth inhibition (tumor growth; twice weekly dosing for four weeks): 77% | direct inhibitory effects on tumor cell lines [14]: no direct inhibitory effects

O=c1[nH]cc(F)c(=O)[nH]1 [fluorouracil, 5-fluoro-2,4 (1H,3H)-pyrimidinedione]
median survival time ([15]; fluorouracil alone 500 mg/m^2): 7.7 months | response rate ([15]; fluorouracil alone 500 mg/m^2 daily for 5 days every 28-35 days): 10% | median survival [16]: six | response rate [16]: about 15% | excreted in urine ([17]; in vivo): Less than 10% | plasma levels ([17]; within 2 hours, intravenous bolus 370 to 720 mg/m^2): below 1 μM
